Source: patent US8268848B2, “Cyclopropane compound” (Eisai R&D Management Co., Ltd., priority 2010, dated 2012)
pIC50, pKi: −log10 of the molar value. Where two headings read alike, the source gives them in different places.

Key:
[1] = system: mice (C57BL/6NCrlCrLj); assay: Sleep experiment (EEG/EMG) in mice; type: in vivo; details: for minimum effective dose (MED): oral, doses 0.3 to 100 mg/kg, accumulated sleep time within three hours after administration
Method: As a method for measuring the influence of the present compound on sleep time, electroencephalogram (EEG) and electromyogram (EMG) measurements were carried out in mice (C57BL/6NCrlCrLj).
In order to measure brain waves and muscle signals, EEG and EMG electrode implantation was performed on individual mice, and the mice were then housed in a state in which they could freely move and habituate in individual recording cages for 1 week or longer. Thereafter, amplified EEG and EMG signals were digitally recorded.
Mice received either oral administration of vehicle or test compound in vehicle, after which sleep/wake behavior of mice was recorded for 3 hours.
For sleep analysis, automatic analysis software from Kissei Comtec Co., Ltd. was used to analyze EEG frequency and EMG activity signals in detail and to determine sleep and wake states. Thereafter, accumulated sleeping time over 3 hours was calculated.
The effect of the compound to increase sleep time was evaluated as the difference between sleeping time on the vehicle-administration day and the sleep time on the subsequent drug-administration day.
The minimum effective dose (MED; mg/kg) was obtained from accumulated sleep time of mice with three hours after the administration.

[2] = target: T1, OX2 (Homo sapiens, UniProt O43614); assay: Measurement of orexin receptor-binding ability ([125I]-OX-A, cell membranes, OX2); design: expressed in transfected cells; host or cells: CHO cells (membrane preparation); details: membranes of recombinant CHO cells expressing OX2, 0.2 nM [125I]-OX-A; for IC50: OX2 (IC50) nM; for pIC50: read-out: OX2 (IC50)
T1 sequence (O43614 1-444): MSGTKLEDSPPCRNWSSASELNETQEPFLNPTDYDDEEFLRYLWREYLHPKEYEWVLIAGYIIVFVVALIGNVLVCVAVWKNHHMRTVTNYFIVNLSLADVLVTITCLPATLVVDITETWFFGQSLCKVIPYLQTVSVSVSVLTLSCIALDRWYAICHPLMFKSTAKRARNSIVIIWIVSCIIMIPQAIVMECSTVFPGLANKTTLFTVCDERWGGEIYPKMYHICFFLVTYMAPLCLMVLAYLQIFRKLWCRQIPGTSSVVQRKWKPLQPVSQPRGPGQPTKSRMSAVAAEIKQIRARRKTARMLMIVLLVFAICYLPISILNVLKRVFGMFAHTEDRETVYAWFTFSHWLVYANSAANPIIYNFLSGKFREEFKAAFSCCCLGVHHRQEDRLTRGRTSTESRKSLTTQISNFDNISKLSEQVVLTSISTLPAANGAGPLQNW

[3] = target: T2, OX1 (Homo sapiens, UniProt O43613); assay: Measurement of orexin receptor-binding ability ([125I]-OX-A, cell membranes, OX1); design: expressed in transfected cells; host or cells: CHO cells (membrane preparation)
T2 sequence (O43613 1-425): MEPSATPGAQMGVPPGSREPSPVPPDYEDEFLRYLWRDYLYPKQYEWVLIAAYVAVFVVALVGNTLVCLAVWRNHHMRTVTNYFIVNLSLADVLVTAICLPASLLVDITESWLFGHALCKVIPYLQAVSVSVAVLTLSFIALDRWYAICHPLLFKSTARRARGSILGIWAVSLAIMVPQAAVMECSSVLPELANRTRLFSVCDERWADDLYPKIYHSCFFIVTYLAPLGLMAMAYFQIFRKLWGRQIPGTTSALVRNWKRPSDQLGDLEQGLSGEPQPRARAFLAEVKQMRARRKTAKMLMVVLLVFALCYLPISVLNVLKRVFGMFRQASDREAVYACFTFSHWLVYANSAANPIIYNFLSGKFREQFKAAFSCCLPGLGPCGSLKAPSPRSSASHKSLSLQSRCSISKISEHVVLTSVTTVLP

[4] = target: T1, OX2; assay: Measurement of antagonism (PLAP assay), OX2; type: cell-based; design: expressed in transfected cells; host or cells: HEK-293 cells, expression vector pBabeCLIH
Method: (§1) 2. Measurement of Antagonism (PLAP Assay)
(§2) The antagonistic function of the compound of the present invention to prevent the activation of OX2 and OX1 by orexin-A (OX-A), which is a natural peptide agonist, was measured using a cell-based reporter assay. […] The cells were plated at a density of 10,000 cells/well onto a non-coated 96-well plate in Dulbecco's modified Eagle medium (Sigma Cat No. D6046:10% v/v heat-inactivated fetal bovine serum was contained). The cells were cultured at 37° C. overnight, so that they could adhere to the plate. On the following day, cells were incubated with a compound of the present invention dissolved in Dulbecco's modified Eagle medium (Sigma Cat No. A8806:0.1% w/v bovine serum albumin was contained), and added to the cell plate to reach a final concentration of 0.1% dimethyl sulfoxide.
(§3) The thus obtained mixture was incubated at room temperature for 1 hour. Thereafter, human OX-A and forskolin were dissolved in the same medium as described above, which contained fetal bovine serum albumin, and the medium was then added to the cells, resulting in a final concentration of 300 nM forskolin. Subsequently, the cells were cultured at 37° C. for approximately 18 to 24 hours.

[5] = target: T2, OX1; assay: Measurement of antagonism (PLAP assay), OX1; type: cell-based; design: expressed in transfected cells; host or cells: HEK-293 cells, expression vector pBabeCLIH
Method: as §1, §2, §3

[6] = mice, oral administration, difference to vehicle day, 3 hours
[7] = HEK-293 cells expressing human OX2, 1 nM human OX-A, IC50 converted by Cheng-Prusoff equation, read-out: OX2 (Ki)
[8] = HEK-293 cells expressing human OX1, 1 nM human OX-A, IC50 converted by Cheng-Prusoff equation, read-out: OX1 (Ki)
[9] = membranes of recombinant CHO cells expressing OX1, 0.2 nM [125I]-OX-A, read-out: OX1 (IC50)

| pKi [4, 7] | pIC50 [2] | pIC50 [3, 9] | Structure (SMILES) | Sleep extended time 10 mg/kg (min/3 hrs) [1, 6] [min/3 hrs] | IC50 [2] [nM] | pIC50 [3] | pKi [5, 8] | pKi [4] | Sleep extended time 10 mg/kg (min/3 hrs) ([1]; po, 3 h) | minimum effective dose (MED) ([1]; mice) [mg/kg] | pKi [5] |
| --- | --- | --- | --- | --- | --- | --- | --- | --- | --- | --- | --- |
|  |  |  | Cc1ncc(OC[C@@]2(c3cccc(F)c3)C[C@H]2C(=O)Nc2cc(C)c(F)cn2)c(C)n1 [Example 82, (1R,2S)-2-{[(2,4-dimethylpyrimidin-5-yl)oxy]methyl}-N-(5-fluoro-4-methylpyridin-2-yl)-2-(3-fluorophenyl)cyclopropanecarboxamide] | 33.5 | 3.7 | 8.62 | 9.02 | 10.07 |  |  |  |
| 8.24 | 8.15 | 6.91 | CCc1nc(C)ncc1OC[C@@]1(c2ccccc2)C[C@H]1C(=O)Nc1ccc(C#N)cn1 [Example 120, (1R,2S)-N-(5-cyanopyridin-2-yl)-2-{[(4-ethyl-2-methylpyrimidin-5-yl)oxy]methyl}-2-phenylcyclopropanecarboxamide] |  |  |  | 6.56 |  | 11.5 |  |  |
|  |  |  | CCc1nc(C)ncc1OC[C@@]1(c2cccc(F)c2)C[C@H]1C(=O)Nc1ccccn1 [Example 240, (1R,2S)-2-{[(4-ethyl-2-methylpyrimidin-5-yl)oxy]methyl}-2-(3-fluorophenyl)-N-(pyridin-2-yl)cyclopropanecarboxamide] | 7.7 | 2.9 | 8.06 |  | 9.04 |  | 10 | 7.74 |
| 9.52 | 8.51 | 8.00 | CCc1nc(C)ncc1OC[C@@]1(c2ccccc2)C[C@H]1C(=O)Nc1ccc(Cl)cn1 [Example 121, (1R,2S)-N-(5-chloropyridin-2-yl)-2-{[(4-ethyl-2-methylpyrimidin-5-yl)oxy]methyl}-2-phenylcyclopropanecarboxamide] |  |  |  | 7.59 |  | 26.7 |  |  |
| 8.27 | 8.72 | 7.40 | Cc1ncc(OC[C@@]2(c3ccccc3)C[C@H]2C(=O)Nc2ccc(Cl)cn2)c(C)n1 [Example 16, (1R,2S)-N-(5-chloropyridin-2-yl)-2-{[(2,4-dimethylpyrimidin-5-yl)oxy]methyl}-2-phenylcyclopropanecarboxamide] |  |  |  | 7.10 |  | 19.0 |  |  |
| 10.06 | 8.22 | 8.52 | Cc1ncc(OC[C@@]2(c3ccc(F)c(F)c3)C[C@H]2C(=O)Nc2cc(C)c(F)cn2)c(C)n1 [Example 164, (1R,2S)-2-(3,4-difluorophenyl)-2-{[(2,4-dimethylpyrimidin-5-yl)oxy]methyl}-N-(5-fluoro-4-methylpyridin-2-yl)cyclopropanecarboxamide] |  |  |  | 9.03 |  | 48.4 |  |  |
|  |  |  | Cc1ncc(OC[C@@]2(c3ccccc3F)C[C@H]2C(=O)Nc2ccc(F)cn2)c(C)n1 [Example 263] | 27.3 | 17 | 7.09 |  | 8.07 |  |  | 6.71 |
| 10.22 | 8.82 | 9.00 | Cc1ncc(OC[C@@]2(c3cc(F)cc(F)c3)C[C@H]2C(=O)Nc2cc(C)c(F)cn2)c(C)n1 [Example 129, (1R,2S)-2-(3,5-difluorophenyl)-2-{[(2,4-dimethylpyrimidin-5-yl)oxy]methyl}-N-(5-fluoro-4-methylpyridin-2-yl)cyclopropanecarboxamide] |  |  |  | 9.01 |  | 30.0 |  |  |

| Structure (SMILES) | pKi [4, 7] | pIC50 [2] | pIC50 [3, 9] | Sleep extended time 10 mg/kg (min/3 hrs) [1, 6] [min/3 hrs] | IC50 [2] [nM] | pIC50 [3] | pKi [5, 8] | pKi [4] | Sleep extended time 10 mg/kg (min/3 hrs) ([1]; po, 3 h) | minimum effective dose (MED) ([1]; mice) [mg/kg] | pKi [5] |
| --- | --- | --- | --- | --- | --- | --- | --- | --- | --- | --- | --- |
| COc1cccc([C@]2(COc3cnc(C)nc3C)C[C@H]2C(=O)Nc2ccc(F)cn2)c1 [Example 186, (1R,2S)-2-{[(2,4-dimethylpyrimidin-5-yl)oxy]methyl}-N-(5-fluoropyridin-2-yl)-2-(3-methoxyphenyl)cyclopropanecarboxamide] | 8.47 |  |  | 14.7 | 7 | 7.66 | 7.06 |  |  |  |  |
| Cc1ncc(OC[C@@]2(c3ccc(F)cc3)C[C@H]2C(=O)Nc2ccc(F)cn2)c(C)n1 [Example 100, (1R,2S)-2-{[(2,4-dimethylpyrimidin-5-yl)oxy]methyl}-2-(4-fluorophenyl)-N-(5-fluoropyridin-2-yl)cyclopropanecarboxamide] | 8.03 |  |  | 23.8 | 7.6 | 7.40 | 6.83 |  |  |  |  |
| Cc1ncc(OC[C@@]2(c3ccc(Cl)cc3)C[C@H]2C(=O)Nc2ccc(F)cn2)c(C)n1 [Example 161] | 8.54 |  |  | 10.0 | 12 | 7.30 | 7.49 |  |  |  |  |
| Cc1ncc(OC[C@@]2(c3ccccc3)C[C@H]2C(=O)Nc2ccc(F)cn2)c(C)n1 [Example 1, (1R,2S)-2-{[(2,4-dimethylpyrimidin-5-yl)oxy]methyl}-N-(5-fluoropyridin-2-yl)-2-phenylcyclopropanecarboxamide] |  |  | 6.86 | 18.3 | 6.8 |  | 6.80 | 8.00 |  | 30 |  |
| CCc1nc(C)ncc1OC[C@@]1(c2ccccc2)C[C@H]1C(=O)Nc1ccc(F)cn1 [Example 119, (1R,2S)-2-{[(4-ethyl-2-methylpyrimidin-5-yl)oxy]methyl}-N-(5-fluoropyridin-2-yl)-2-phenylcyclopropanecarboxamide] | 9.22 |  |  | 16.0 | 5.2 | 7.68 | 7.68 |  |  |  |  |
